Reference: paper PMC9238271, “The quorum sensing peptide EntF* promotes colorectal cancer metastasis in mice: a new factor in the host-microbiome interaction” (BMC Biology, 2022)
“And” between values parts separate entries of the source, which are not always exact repeats. Equal values may be shown once.

Columns and labels:
[1] = tested on: E-cadherin expression in HCT-8 cells; assay: Western blot of E-cadherin expression, HCT-8 cells (EntF*, alanine and D-amino acid analogs); assay type: cell-based
Method: (§1) HCT-8, HT-29, and HT-116 cells were grown in DMEM medium supplied with 10% fetal bovine serum (FBS) and 1% penicillin-streptomycin. Caco-2 cells were grown in DMEM medium supplied with 10% FBS, 1% non-essential amino acid NEAA), and 1% penicillin-streptomycin. Cells were cultured at 37 °C and 5% CO2. As cells reached confluency, they were detached using 0.25% Trypsin-EDTA.
(§2) For Western blot analyses, HCT-8 (n = 15), HCT-116 (n = 12), Caco-2 (n = 6), and HT-29 (n = 12) cells were seeded in 6-well plates at a density of 1 × 10^6 cells/well. Twenty-four hours after seeding, all cell lines were treated with 1 μM EntF* or a placebo solution. HCT-8 cells were also tested for responsiveness to 1 μM EntF* synthetic alanine-derived analogs. For antagonist activity analysis, HCT-8 cells were treated with 1 μM Nef-M1 or 1 μM EntF*A1 alone or in combination with 500 nM EntF*. After 24 h, cells were detached from the surface and lysed in RIPA buffer (Thermo Scientific). Protein concentration was determined using the modified Lowry protein assay kit (Thermo Scientific), according to the manufacturer’s instructions. Protein samples were diluted to the same concentration (4 μg/μL) with water and diluted again 1:1 using 2x Laemmli buffer. After that, samples were boiled for 5 min at 95 °C to denature proteins and centrifuged for 5 min at 16,000g; supernatants were used for Western blot analyses. Equal amounts of total protein (20 μg/lane) were separated by SDS-PAGE on an Any kD^TM gel (Bio-Rad ) and then transferred to a PVDF membrane. Before incubation with antibodies, non-specific binding sites on the membranes were blocked using 5% skimmed milk solution (1 h). TBS buffer with 0.05% Tween 20 was used for all washing steps. Membranes were incubated overnight at 4 °C with an anti-E-cadherin primary antibody (1/1000 dilution). An HRP-conjugated anti-rabbit antibody (1/2000 dilution, 1 h incubation) was used for chemiluminescent detection. Membranes were incubated with the detection substrate for 5 min and signal detection was performed using the ChemiDoc EZ imager and Image Lab software (Bio-Rad). Signal intensity was normalized against the total protein content in each lanes.
A quantitative approach was used to evaluate the importance of each amino acid, where the Fisher’s LSD p-values of (1) multiple comparisons between EntF* and the alanine (ALA) scan and (2) multiple comparisons between different peptides of the ALA scan are combined. Subsequently, based on the combined P-score, the amino acids were classified in 5 classes using a hierarchical cluster analysis and confirmed using the Jenks natural breaks algorithm with K = 5. CombinedPscore=1-PPBSvsALAscan*PEntF*vsALAscan

[2] = tested on: E-cadherin expression in HT-29 cells; assay: Western blot of E-cadherin expression, HT-29 cells; assay type: cell-based; settings: HT-29 cells, average of n = 12
Method: as §1
as §2, with “Signal intensity was normalized against the total protein content in each lanes.” left out

[3] = tested on: E-cadherin expression in Caco-2 cells; assay: Western blot of E-cadherin expression, Caco-2 cells; assay type: cell-based; settings: CaCo-2 cells, average of n = 6
Method: as §1
as §2, with “Signal intensity was normalized against the total protein content in each lanes.” left out

[4] = tested on: E-cadherin expression in HCT-116 cells; assay: Western blot of E-cadherin expression, CXCR4-negative HCT-116 cells; assay type: cell-based
Method: as §1, §2

[5] = tested on: luciferase-transfected HCT-8/E11 cells injected into the cecal wall; assay: Orthotopic mouse model of colorectal cancer: weekly bioluminescent imaging; assay type: in vivo, female athymic nude mice (Swiss nu/nu)
Method: All in vivo experiments were performed according to the Ethical Committee principles of laboratory animal welfare, approved by our institute (Ghent University, Faculty of Medicine and Health Sciences, approval number ECD 17-90). Mice were maintained in a sterile environment under controlled conditions (light–dark cycle with light from 7:00 h to 17:00 h, temperature 21–25 °C and humidity 45–65%). Before the experiment, mice were allowed to acclimate to the abovementioned conditions for a minimum of 7 days.
(§3) Six-week-old female athymic nude mice (Swiss nu/nu) were anesthetized, and a minimally invasive midline laparotomy was performed to localize the cecum. The cecum was then gently pulled out, and luciferase-transfected HCT-8/E11 cells (1 × 10^6 cells) in 20 μL serum-free DMEM medium with Matrigel (1:1) were injected into the cecal wall. Before implantation, cells were treated with EntF* (10^2 nM), Phr0662 (10^2 nM), vehicle (PBS), or TGFα positive control (0.1 μg mL^−1) solutions for 5 days. The cecum was then carefully placed back into the abdominal cavity and the surgical incision was closed with two layers of sutures with PDS 6-0. […] Once a week, mice were examined for tumor growth and metastases using bioluminescent imaging with the IVIS Lumina II (Perkin Elmer, Belgium) after i.p. injection with 200 μL luciferin (150 mg kg^−1). After 6 weeks, mice were euthanized using cervical dislocation, and the liver, diaphragm, lungs, cecum, duodenum, and peritoneum were macroscopically examined for the presence of tumor nodules. Liver and lung tissues were then fixed in formalin for 24 h and stored in 70% ethanol for maximum 3 days before embedding in paraffin. Next, a hematoxylin and eosin (H&E) staining was performed on 8 μm sections, and 3 sections per mouse were visualized using microscopy. Slides from tumor-bearing mice were analyzed by two blinded, independent investigators using the scoring system described in Additional file 5: Table S3. In case of differences, slides were scored by a third blinded, independent investigator for consensus.
(§4) The Kolmogorov-Smirnov test was used to assess if data obtained were normally distributed. For sample size n < 10, non-parametric tests (Mann-Whitney U test) were performed directly. Slope comparison was based on linear regression analysis. Bootstrapped medians and Hedges G-values were used to calculate the effect size when sample sizes were different between the groups.

[6] = tested on: luciferase-transfected HCT-8/E11 cells injected into the cecal wall; assay: Orthotopic mouse model: macroscopic number of tumor nodules on the cecum; assay type: in vivo, female athymic nude mice (Swiss nu/nu)
Method: as §3
as §4, with “groups. Cohen’s d values were calculated as a measure of the effect size when similar standard deviations for both groups were found, and sample sizes were the same.” for “groups.”

[7] = tested on: tumor nodules in the liver; assay: Orthotopic mouse model: histopathological evaluation of liver; assay type: in vivo, female athymic nude mice (Swiss nu/nu)
Method: as §3

[8] = tested on: tumor nodules in the lungs; assay: Orthotopic mouse model: histopathological evaluation of lungs; assay type: in vivo, female athymic nude mice (Swiss nu/nu)
Method: as §3

[9] = after a 6-week treatment, compared to the placebo group
[10] = individual samples, one line per sample

## C-X-C motif chemokine 12 (KPVSLSYRC; only N-terminal stretch given) [CXCL12, endogenous ligand of the CXCR4 receptor]
[1]; 24 h, n = 15
  effect on E-cadherin levels in HCT-8 cells: significant decrease
[1]; D-scan sheet, Blot 13, CXCL12 1µg/ml, relative to H2O lane = 100.0, single blot
  E-cadherin expression relative to H2O control (= 100): 89.3
[1]; D-scan sheet, Blot 14, CXCL12 1µg/ml, relative to H2O lane = 100.0, single blot
  E-cadherin expression relative to H2O control (= 100): 93.2
[1]; D-scan sheet, Blot 15, CXCL12 1µg/ml, relative to H2O lane = 100.0, single blot
  E-cadherin expression relative to H2O control (= 100): 77.6
[1]; D-scan sheet, Blot 16, CXCL12 1µg/ml, relative to H2O lane = 100.0, single blot
  E-cadherin expression relative to H2O control (= 100): 91.1
[1]; D-scan sheet, Blot 17, CXCL12 10µg/ml, relative to H2O lane = 100.0, single blot
  E-cadherin expression relative to H2O control (= 100): 46.4
[1]; D-scan sheet, Blot 18, CXCL12 10µg/ml, relative to H2O lane = 100.0, single blot
  E-cadherin expression relative to H2O control (= 100): 45.6
[1]; D-scan sheet, Blot 19, CXCL12 10µg/ml, relative to H2O lane = 100.0, single blot
  E-cadherin expression relative to H2O control (= 100): 84.8
[1]; D-scan sheet, Blot 20, CXCL12 10µg/ml, relative to H2O lane = 100.0, single blot
  E-cadherin expression relative to H2O control (= 100): 28.8
[1]; D-scan sheet, Blot 21, CXCL12 100µg/ml, relative to H2O lane = 100.0, single blot
  E-cadherin expression relative to H2O control (= 100): 80.5
[1]; D-scan sheet, Blot 22, CXCL12 100µg/ml, relative to H2O lane = 100.0, single blot
  E-cadherin expression relative to H2O control (= 100): 80.0
[1]; D-scan sheet, Blot 23 (single blot), chemiluminescence band, Norm. Vol. relative to H2O lane = 100.0, CXCL12 at 100µg/ml
  E-cadherin expression relative to H2O control (= 100): 75.6
[1]; D-scan sheet, Blot 24 (single blot), chemiluminescence band, Norm. Vol. relative to H2O lane = 100.0, CXCL12 at 100µg/ml
  E-cadherin expression relative to H2O control (= 100): 96.6
[1]; H2O = 100.0, CXCL12 at 10µg/ml, mean of the replicates (row r47, unlabelled; SEM in row below)
  E-cadherin expression relative to H2O control (= 100): 51.4
[1]; HCT-8 cells, average (EntF* n = 15, CXCL12 n = 4)
  Relative E-cadherin decrease in different cell lines, Average: 51.4
[2]
  Relative E-cadherin expression, average: 78.2
[3]
  Relative E-cadherin in different cell lines, Average: 45.3
[4]; CXCR4-negative cells, 24 h, n = 12
  effect on E-cadherin expression in HCT-116 cells: no decrease
[4]; HCT-116 cells, average of n = 12
  Relative E-cadherin level: 111.3

## Epidermal Growth Factor [EGF]
[5]; after a 6-week treatment
  effect size of bioluminescence, upper end of range: 826%
[5]; [9]
  effect size class by Hedges' G, bioluminescence: medium to large effect
[5]; after a 6-week treatment, bootstrapped median
  effect size: increase in bioluminescence compared to the placebo: 316%
[5]; daily i.p. over 6 weeks, linear regression slope comparison
  luciferase activity / tumor growth compared to the vehicle: significant increase in tumor growth
[6]; [9]
  effect size class by Hedges' G, number of nodules in the cecum: large
[6]; after a 6-week treatment, macroscopic inspection
  increase in the number of nodules on the cecum compared to PBS vehicle: 4.5 fold
[6]; macroscopic evaluation caecum, mean of the group
  Mean amount of nodules: 16.3
[7]; [10]
  Histology scoring LIVER, Scoring person 1 (ND): 4 and 3 and 2 and 0
  Histology scoring LIVER, Scoring person 2 (ADS): 4 and 2 and 1 and 3 and 0
  Histology scoring LIVER, conclusion per sample: 4 and 2 and 1 and 3 and 0
[7]; per group
  Histology scoring LIVER, conclusion per group: 3
[8]; [10]
  Histology scoring LUNGS, Scoring person 1 (ND): 3 and 4 and 0 and 1
  Histology scoring LUNGS, Scoring person 2 (ADS): 3 and 4 and 0 and 1
  Histology scoring LUNGS, conclusion per sample: 3 and 4 and 0 and 1
[8]; per group
  Histology scoring LUNGS, conclusion per group: 3

## TGFa
[1]; Ala-scan sheet, Blot 19 (single blot), chemiluminescence band, placebo lane = 100
  Relative E-cadherin decrease: 49.4514
[1]; Ala-scan sheet, Blot 20 (single blot), chemiluminescence band, placebo lane = 100
  E-cadherin expression relative to H2O control (= 100): 55.9239
[1]; Ala-scan sheet, Blot 21 (single blot), chemiluminescence band, placebo lane = 100
  Relative E-cadherin decrease: 121.047
[1]; Ala-scan sheet, Blot 24 (single blot), chemiluminescence band, Norm. Vol. relative to placebo lane = 100
  E-cadherin expression relative to H2O control (= 100): 52.2
[1]; Ala-scan sheet, Blot 25 (single blot), chemiluminescence band, Norm. Vol. relative to placebo lane = 100
  E-cadherin expression relative to H2O control (= 100): 30.5
[1]; Ala-scan sheet, Blot 26 (single blot), chemiluminescence band, Norm. Vol. relative to placebo lane = 100
  E-cadherin expression relative to H2O control (= 100): 88.2
[1]; Ala-scan sheet, Blot 27 (single blot), chemiluminescence band, Norm. Vol. relative to placebo lane = 100
  E-cadherin expression relative to H2O control (= 100): 330.9
[1]; Ala-scan, Blot 11 (single blot replicate), normalized band volume relative to Placebo = 100.0
  E-cadherin expression relative to H2O control (= 100): 85.7
[1]; Ala-scan, Blot 12 (single blot replicate), normalized band volume relative to Placebo = 100.0
  E-cadherin expression relative to H2O control (= 100): 80.6
[1]; Ala-scan, Blot 13 (single blot replicate), normalized band volume relative to Placebo = 100.0
  E-cadherin expression relative to H2O control (= 100): 55.6
[1]; Ala-scan, Blot 14 (single blot replicate), normalized band volume relative to Placebo = 100.0
  E-cadherin expression relative to H2O control (= 100): 119.9
[1]; Ala-scan, Blot 18 (single blot replicate), normalized band volume relative to Placebo = 100.0
  E-cadherin expression relative to H2O control (= 100): 188.1
[1]; H2O = 100.0, mean of the replicates (row r29, unlabelled; SEM in row below)
  Ala scan: Relative E-cadherin decrease: 73.9
[1]; H2O vs. test, 95% CI, Dunnett's and Fisher's LSD P values in neighbouring columns
  Ala-scan: Mean decrease (%): 26.1%
